Data from US8017611B2, “Pyridine and pyrazine derivatives -083” (AstraZeneca AB, priority 2007, dated 2011).
Read-outs that look alike come from different tables or passages of the source.

How the values were obtained:
[1] = target: T1, cMet expressed on MKN45 cells (Homo sapiens, UniProt P08581); assay: Cellular c-Met inhibition assay, Test (d); type: cell-based
T1 construct: endogenous in cells; host or cells: MKN45
Excerpt: These and other assays can be used to indicate the ability of a test compound to inhibit c-Met mediated cellular signalling in mammalian cell lines, for example the human tumour cell line MKN45. This is achieved by measuring the amount of phosphorylated c-Met within a cell following compound treatment.
MKN45 cells were routinely passaged in DMEM (Gibco BRL, product number 41966-029) plus 10% foetal calf serum (FCS), 1% L-glutamine (Gibco BRL, product number 25030024), to a confluence not greater than 85%. To undertake the assay, MKN45 cells were seeded at 2×10^4 cells/well in DMEM plus 0.5% foetal calf serum, 1% L-glutamine in 96 well plates (Costar, product number 3904) and incubated at 37° C. (+5% CO2) in a humidified incubator. Once the cells had fully adhered (typically following overnight incubation) plates were dosed with 25 μl compound (diluted from 10 mM stock in DMSO using serum free DMEM) and the plates were returned to a humidified 37° C. (+5% CO2) incubator for one hour. Following incubation the cells were fixed by adding formaldehyde (4% final concentration) and incubating at room temperature for 20 minutes. […] The plates were read using an Arrayscan II (Cellomics). […]

[2] = target: T2, recombinant Axl tyrosine kinase (Homo sapiens, UniProt P30530); assay: In vitro Axl kinase assay (AlphaScreen), Test (a); type: biochemical
T2 construct: encompassing amino acids 473 to 894 of Axl; GST (N); made in house; host or cells: SF126 insect cells
T2 sequence (P30530 473-894): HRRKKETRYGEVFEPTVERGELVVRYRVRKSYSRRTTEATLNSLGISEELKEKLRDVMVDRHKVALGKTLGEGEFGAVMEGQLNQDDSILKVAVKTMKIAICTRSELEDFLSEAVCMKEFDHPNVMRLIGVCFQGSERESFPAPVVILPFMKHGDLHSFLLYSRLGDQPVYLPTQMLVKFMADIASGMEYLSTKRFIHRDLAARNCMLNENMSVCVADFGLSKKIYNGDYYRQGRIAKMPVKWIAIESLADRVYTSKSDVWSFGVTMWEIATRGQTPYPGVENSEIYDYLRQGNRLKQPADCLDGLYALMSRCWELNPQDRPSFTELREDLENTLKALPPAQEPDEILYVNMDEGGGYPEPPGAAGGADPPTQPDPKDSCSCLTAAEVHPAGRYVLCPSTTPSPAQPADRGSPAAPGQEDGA

[3] = target: T3, Axl expressed on NCI H1299 lung large cell carcinoma cells (Homo sapiens, UniProt P30530); assay: Cellular phospho-Axl ELISA assay, Test (b); settings: Test (b)
T3 sequence (P30530 26-894): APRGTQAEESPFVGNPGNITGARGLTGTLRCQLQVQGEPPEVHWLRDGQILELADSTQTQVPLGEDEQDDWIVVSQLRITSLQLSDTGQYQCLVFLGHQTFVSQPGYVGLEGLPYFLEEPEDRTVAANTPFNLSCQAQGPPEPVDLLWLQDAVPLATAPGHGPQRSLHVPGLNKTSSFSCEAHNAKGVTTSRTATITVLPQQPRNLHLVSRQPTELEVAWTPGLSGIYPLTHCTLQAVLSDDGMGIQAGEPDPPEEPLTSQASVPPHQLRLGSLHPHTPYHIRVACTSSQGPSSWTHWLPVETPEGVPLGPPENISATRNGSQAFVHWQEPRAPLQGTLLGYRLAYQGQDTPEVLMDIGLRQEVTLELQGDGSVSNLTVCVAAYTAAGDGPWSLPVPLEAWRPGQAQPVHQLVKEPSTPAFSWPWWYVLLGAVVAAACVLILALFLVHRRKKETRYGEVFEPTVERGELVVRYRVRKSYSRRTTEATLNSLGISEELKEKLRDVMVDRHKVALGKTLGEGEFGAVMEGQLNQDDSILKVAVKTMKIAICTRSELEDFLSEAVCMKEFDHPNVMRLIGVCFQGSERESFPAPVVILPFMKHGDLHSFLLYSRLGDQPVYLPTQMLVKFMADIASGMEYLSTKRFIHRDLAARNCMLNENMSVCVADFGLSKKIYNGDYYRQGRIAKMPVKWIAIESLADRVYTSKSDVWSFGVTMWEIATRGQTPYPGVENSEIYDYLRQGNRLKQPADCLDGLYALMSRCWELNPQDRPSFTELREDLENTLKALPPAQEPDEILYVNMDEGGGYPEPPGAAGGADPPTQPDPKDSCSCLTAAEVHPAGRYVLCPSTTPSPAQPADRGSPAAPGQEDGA
Description: This assay uses a conventional ELISA method to determine the ability of test compounds to inhibit phosphorylation of tyrosine residues in Axl.
100 μl Aliquots were seeded into each of the wells of a clear 96 well tissue culture plate and the plates were incubated overnight at 37° C. with 5% CO2 to allow the cells to adhere to the wells.
Aliquots of each compound concentration were added to the cells in each well using the Echo 550 (Labcyte Inc., Sunnyvale, Calif., US). Control cells received DMSO only. The cells were incubated for 2 hours at 37° C. with 5% CO2.
The resultant tissue culture plates were incubated on ice for 30 minutes to ensure full lysis.
The wells were washed 3 times with 250 μl per well of PBS containing 0.05% v/v Tween (PBS/T). The wells were treated with 3% w/v BSA in PBS at ambient temperature for 2 hours and subsequently washed 3 times with 250 μl per well of PBS/T.
50 μl Aliquots of the NCI H1299 cell lysates were added to the ELISA plates.
100 μl Aliquots of substrate solution were added to each of the wells and fluorescence was read on a Tecan Ultra plate reader (Tecan UK Ltd., Reading, Berkshire, UK).

T1 sequence (P08581 25-1390): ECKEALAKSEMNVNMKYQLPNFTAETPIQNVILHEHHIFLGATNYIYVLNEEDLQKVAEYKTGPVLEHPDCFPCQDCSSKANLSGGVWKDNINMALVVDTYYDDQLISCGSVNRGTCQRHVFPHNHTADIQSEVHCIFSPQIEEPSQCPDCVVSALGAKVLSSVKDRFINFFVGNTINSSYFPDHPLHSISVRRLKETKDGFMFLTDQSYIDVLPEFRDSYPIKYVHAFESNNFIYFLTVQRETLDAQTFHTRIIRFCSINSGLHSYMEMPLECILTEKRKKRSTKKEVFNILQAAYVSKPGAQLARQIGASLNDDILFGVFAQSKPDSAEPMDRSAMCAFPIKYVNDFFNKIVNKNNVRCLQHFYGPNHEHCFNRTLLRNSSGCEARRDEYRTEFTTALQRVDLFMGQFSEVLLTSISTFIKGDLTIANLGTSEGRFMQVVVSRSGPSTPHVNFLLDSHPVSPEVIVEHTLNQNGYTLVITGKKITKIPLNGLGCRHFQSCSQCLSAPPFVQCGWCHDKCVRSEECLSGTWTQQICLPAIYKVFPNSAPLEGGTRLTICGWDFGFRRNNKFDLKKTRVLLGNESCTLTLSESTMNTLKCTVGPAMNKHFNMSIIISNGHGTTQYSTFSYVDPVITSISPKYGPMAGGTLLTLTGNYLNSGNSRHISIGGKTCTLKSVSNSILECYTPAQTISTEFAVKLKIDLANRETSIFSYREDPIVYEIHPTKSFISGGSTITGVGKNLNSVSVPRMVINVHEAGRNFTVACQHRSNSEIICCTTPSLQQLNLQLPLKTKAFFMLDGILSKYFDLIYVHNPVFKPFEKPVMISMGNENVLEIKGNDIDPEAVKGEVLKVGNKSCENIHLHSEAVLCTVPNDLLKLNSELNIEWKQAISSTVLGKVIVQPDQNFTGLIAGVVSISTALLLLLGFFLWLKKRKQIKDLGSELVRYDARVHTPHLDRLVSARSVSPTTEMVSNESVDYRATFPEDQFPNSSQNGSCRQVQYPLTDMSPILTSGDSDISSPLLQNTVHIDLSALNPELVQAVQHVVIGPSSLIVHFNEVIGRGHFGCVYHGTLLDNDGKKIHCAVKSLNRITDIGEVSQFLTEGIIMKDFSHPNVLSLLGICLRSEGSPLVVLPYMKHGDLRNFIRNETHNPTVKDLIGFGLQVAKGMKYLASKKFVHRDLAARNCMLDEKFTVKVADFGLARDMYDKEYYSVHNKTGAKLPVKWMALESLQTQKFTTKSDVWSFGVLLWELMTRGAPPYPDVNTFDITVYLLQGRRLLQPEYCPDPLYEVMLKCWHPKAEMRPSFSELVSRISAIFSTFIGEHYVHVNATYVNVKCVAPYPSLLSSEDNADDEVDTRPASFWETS

With `CN1CCC(n2cc(-c3cnc(N)c(-c4nc5ccc(F)cc5o4)c3)cn2)CC1` [Example 7.2] the IC50 ([1]; MKN45 cells, read-out: IC50 versus cellular phospho-c-Met (pYpYpY1230/4/5)) was about 590 nM, the IC50 ([1]; later recalculated, read-out: IC50 versus cellular phospho-c-Met (pYpYpY1230/4/5), mean recalculated from a larger number of replicates) was 950 nM and the IC50 ([2]; Test (a), read-out: IC50 versus Axl tyrosine kinase) was about 24 nM. The “% Axl tyrosine kinase inhibition at 1 μM concentration” value ([2]; test compound at 1 μM, first value quoted) was 96.6%, the IC50 ([3]; read-out: IC50 versus cellular phospho-Axl, mean recalculated from a larger number of replicates, later recalculated) was 111 nM and the IC50 ([3]; read-out: IC50 versus cellular phospho-Axl, NCI H1299 cells stimulated with GAS6) was about 39 nM.
